Test results published in PubChem BioAssay (NCI).
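A five-concentration, 48-hour dose response in 96-well plates underlies each endpoint, interpolated linearly between surrounding concentrations. The concentration for full growth arrest is given as TGI.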

How the values were obtained:
Test in all cases: growth of human tumour cells (NCI), 48 h
NCI-H23 lung = tested on: NCI-H23 lung
U251 CNS = tested on: U251 CNS
UACC-257 melanoma = tested on: UACC-257 melanoma
TK-10 renal = tested on: TK-10 renal
HCC-2998 colon = tested on: HCC-2998 colon
MDA-N = tested on: MDA-N
A498 renal = tested on: A498 renal
OVCAR-5 ovarian = tested on: OVCAR-5 ovarian
MCF7 breast = tested on: MCF7 breast
NCI-H226 lung = tested on: NCI-H226 lung
MDA-MB-231 breast = tested on: MDA-MB-231 breast
UO-31 renal = tested on: UO-31 renal
NCI-H522 lung = tested on: NCI-H522 lung
RXF 393 renal = tested on: RXF 393 renal
KM12 colon = tested on: KM12 colon
SK-MEL-28 melanoma = tested on: SK-MEL-28 melanoma
SW-620 colon = tested on: SW-620 colon
OVCAR-4 ovarian = tested on: OVCAR-4 ovarian
SNB-75 CNS = tested on: SNB-75 CNS
DU-145 prostate = tested on: DU-145 prostate
OVCAR-3 ovarian = tested on: OVCAR-3 ovarian
HCT-15 colon = tested on: HCT-15 colon
IGROV1 ovarian = tested on: IGROV1 ovarian
SK-MEL-5 melanoma = tested on: SK-MEL-5 melanoma
ACHN renal = tested on: ACHN renal
SN12C renal = tested on: SN12C renal
SK-MEL-2 melanoma = tested on: SK-MEL-2 melanoma
A549 NSCLC = tested on: A549 NSCLC
RPMI-8226 leukemia = tested on: RPMI-8226 leukemia
PC-3 prostate = tested on: PC-3 prostate
OVCAR-8 ovarian = tested on: OVCAR-8 ovarian
T-47D breast = tested on: T-47D breast
MOLT-4 leukemia = tested on: MOLT-4 leukemia
BT-549 breast = tested on: BT-549 breast
NCI-H460 lung = tested on: NCI-H460 lung
MDA-MB-435 = tested on: MDA-MB-435
M14 melanoma = tested on: M14 melanoma
UACC-62 melanoma = tested on: UACC-62 melanoma
K-562 leukemia = tested on: K-562 leukemia
HOP-92 NSCLC = tested on: HOP-92 NSCLC
SF-268 CNS = tested on: SF-268 CNS
HCT-116 colon = tested on: HCT-116 colon
SF-295 CNS = tested on: SF-295 CNS
SNB-19 CNS = tested on: SNB-19 CNS
786-0 renal = tested on: 786-0 renal
CAKI-1 renal = tested on: CAKI-1 renal
CCRF-CEM leukemia = tested on: CCRF-CEM leukemia
COLO 205 colon = tested on: COLO 205 colon
SR leukemia = tested on: SR leukemia
HT29 colon = tested on: HT29 colon
SF-539 CNS = tested on: SF-539 CNS
HL-60(TB) leukemia = tested on: HL-60(TB) leukemia
NCI/ADR-RES ovarian = tested on: NCI/ADR-RES ovarian
MALME-3M melanoma = tested on: MALME-3M melanoma
SK-OV-3 ovarian = tested on: SK-OV-3 ovarian
HOP-62 NSCLC = tested on: HOP-62 NSCLC
LOX IMVI melanoma = tested on: LOX IMVI melanoma
EKVX NSCLC = tested on: EKVX NSCLC

Measured: TGI

CCN(CC)CCCNc1nc2ccccc2[n+]([O-])n1
> 100 µM: NCI-H23 lung | U251 CNS | UACC-257 melanoma | TK-10 renal | HCC-2998 colon | MDA-N | A498 renal | OVCAR-5 ovarian | MCF7 breast | NCI-H226 lung | MDA-MB-231 breast | UO-31 renal | NCI-H522 lung | RXF 393 renal | KM12 colon | SK-MEL-28 melanoma | SW-620 colon | OVCAR-4 ovarian | SNB-75 CNS | DU-145 prostate | OVCAR-3 ovarian | HCT-15 colon | IGROV1 ovarian | SK-MEL-5 melanoma | ACHN renal | SN12C renal | SK-MEL-2 melanoma | A549 NSCLC | RPMI-8226 leukemia | PC-3 prostate | OVCAR-8 ovarian | T-47D breast | MOLT-4 leukemia | BT-549 breast | NCI-H460 lung | MDA-MB-435 | M14 melanoma | UACC-62 melanoma | K-562 leukemia | HOP-92 NSCLC | SF-268 CNS | HCT-116 colon | SF-295 CNS | SNB-19 CNS | 786-0 renal | CAKI-1 renal | CCRF-CEM leukemia | COLO 205 colon | SR leukemia | HT29 colon | SF-539 CNS | HL-60(TB) leukemia | NCI/ADR-RES ovarian | MALME-3M melanoma

O=C1/C(=C/c2ccc3c(c2)CCC3)Cc2cc3c(cc21)CCC3
> 100 µM: SK-OV-3 ovarian | NCI-H23 lung | U251 CNS | UACC-257 melanoma | TK-10 renal | HCC-2998 colon | MDA-N | A498 renal | OVCAR-5 ovarian | MCF7 breast | NCI-H226 lung | MDA-MB-231 breast | UO-31 renal | NCI-H522 lung | RXF 393 renal | KM12 colon | HOP-62 NSCLC | SK-MEL-28 melanoma | SW-620 colon | OVCAR-4 ovarian | SNB-75 CNS | DU-145 prostate | OVCAR-3 ovarian | HCT-15 colon | IGROV1 ovarian | SK-MEL-5 melanoma | ACHN renal | SN12C renal | SK-MEL-2 melanoma | A549 NSCLC | RPMI-8226 leukemia | PC-3 prostate | OVCAR-8 ovarian | T-47D breast | MOLT-4 leukemia | BT-549 breast | NCI-H460 lung | MDA-MB-435 | M14 melanoma | UACC-62 melanoma | K-562 leukemia | SF-268 CNS | HCT-116 colon | SF-295 CNS | SNB-19 CNS | LOX IMVI melanoma | CCRF-CEM leukemia | COLO 205 colon | SR leukemia | HT29 colon | EKVX NSCLC | SF-539 CNS | HL-60(TB) leukemia | NCI/ADR-RES ovarian | MALME-3M melanoma
97.6 µM: HOP-92 NSCLC
